Like-named read-outs stand apart in the source and are kept apart here.
Key:
[1] = Relative humidity stress (deliquescence, hygroscopicity); assay type: physicochemical
[2] = Example 6: multiple-dose study in iron-overloaded human subjects (PK); assay type: in vivo; conditions: for half-life / Tmax / CL renal / Cmax / AUC(0-t) / Vd/F: both sexes, human, plasma; for AUC(0-t): read-out: AUC(0 - 24); for Vd/F: read-out: Vz/F
Source text: Example 6 was a multiple-dose, escalating study in iron-overloaded subjects conducted at 5 centers in the US, Australia, and Thailand.
Men and women at least 18 years of age qualified to participate if they were able to voluntarily give consent and had transfusional overload requiring treatment with an iron chelator and were willing to discontinue their chelation for a period of at least 5 days prior to screening and during the study for a total of up to 35 days. […] The mean of each subject's last 3 pre-transfusion hemoglobin levels (prior to screening) was ≧7.5 g/dL and their serum ferritin was >400 ng/mL. Subjects also agreed to use an approved method of contraception during the study.
The study enrolled 20 subjects with the following primary diagnoses requiring chronic transfusions:
• 2 β-thalassemia major • 2 sickle cell anemia Cohort 2 (8 mg/kg): • 1α-thalassemia major (α°/α°) • 2 β-thalassemia major • 1 congenital dyserythropoietic anemia Cohort 3 (16 mg/kg): • 4 β-thalassemia major Cohort 4 (32 mg/kg): • 1 α-thalassemia major)(α°/α° • 2 β-thalassemia/hemoglobin E • 1 sickle cell anemia Cohort 5 (40 mg/kg): • 2 β-thalassemia major • 2 β-thalassemia/hemoglobin E

[3] = system: adults with transfusional iron overload; test: Example 10: efficacy study, liver iron concentration (LIC); assay type: in vivo, human; conditions: for % with net iron reduction / Mean net change in hepatic iron: first 24 weeks; for LIC, Week 12 / LIC, Week 24 / LIC, Week 48: patients entering extension study
Experimental: In this Example, the safety and efficacy of Compound 1 in adults with transfusional iron overload over 48 weeks of treatment was assessed. Diagnosis and transfusional iron burden of patients (including Asians, Blacks/African Americans, and Whites) at randomization are as follows: 38 patients diagnosed with β-thalassemia major, 2 patients diagnosed with α-thalassemia major, 2 diagnosed with β-thalassemia intermedia (transfusion>7/year), 6 diagnosed with HbE-β thalassemia, and 3 diagnosed with Sickle cell disease. The patients were divided into two dosing groups: 14.5 mg/kg/day and 29 mg/kg/day. Average liver iron content at baseline (mg/g dry weight) was 13.2 with SD 6.64 for the 14.5 mg/kg/day dosing group and 13.9 with SD 7.82 for the 29 mg/kg/day dosing group. Median serum ferritin (ng/ml) was 2564 for the 14.5 mg/kg/day dosing group and 2624 for the 29 mg/kg/day dosing group. Mean pre-transfusion average haemoglobin of previous 3 transfusions (g/dL) was 9.6 (with SD of 0.56) for the 14.5 mg/kg/day dosing group and 9.8 (with SD of 0.79) for the 29 mg/kg/day dosing group. Mean daily transfusion iron intake (mg/kg/d) was about 0.36 (ranging 0.22-0.84) for the 14.5 mg/kg/day dosing group and 0.38 (ranging 0.17-0.60) for the 29 mg/kg/day dosing group. See also FIGS. 7 and 8.

[4] = system: iron overloaded subjects; test: Safety: single-dose Phase 1 study in iron-overloaded subjects; assay type: in vivo
Experimental: The objectives of this study were to assess the safety, tolerability, and pharmacokinetics of ascending single doses of Compound 1. Additionally, dose proportionality and pharmacodynamics of Compound 1 were assessed. Four doses of Compound 1 (6, 10, 16, and 32 mg/kg), in capsule form, were evaluated in this study. Each dose level was tested in a single subject, with appropriate evaluation of safety done prior to escalating the dose. Following screening, the first subject was dosed and then confined to the clinical research unit for 24 hours to conduct safety and pharmacokinetic assessments. The subject was released from the clinic on Day 2 and returned daily for follow-up visits for 5 days post-dosing. This process was followed for each dose level.
Four iron overloaded subjects were enrolled and completed the study. Each subject received a single oral dose of Compound 1. Doses were 6, 10, 16 and 32 mg/kg. […] Three TEAEs were reported for a single subject who received 32 mg/kg of Compound 1. All 3 TEAEs occurred at the site of venipuncture used for blood sampling: bruising at cannula site on the left arm and bruising at 2 venipuncture sites on the left arm and then the right arm.

[5] = 3 mg/kg/day, 7 days oral, N = 4
[6] = 8 mg/kg/day, 7 days oral, N = 4
[7] = 16 mg/kg/day, 7 days oral, N = 4
[8] = 32 mg/kg/day, 7 days oral, N = 2
[9] = 32 mg/kg/day, 7 days oral, N = 4
[10] = 40 mg/kg/day, 7 days oral, N = 4

## COCCOCCOCCOc1cccc(C2=N[C@@](C)(C(=O)O)CS2)c1O [Compound 1, (S)-4,5-Dihydro-2-[2-hydroxy-3-(3,6,9-trioxadecyloxy)phenyl]-4-methyl-4-thiazolecarboxylate magnesium hydroxide]
[1]
  hygroscopicity: non-hygroscopic
[1]; 75% RH for 8 days
  XRPD pattern after RH exposure: remained unchanged
[1]; exposed to 75% RH for 8 days
  deliquescence: did not deliquesce
[2]; [5]
  CL/F: 162 ± 85.0 mL/min
  Fe(0-24): 44.0 ± 16.0 % oral dose
  Ue(0-24): 66.1 ± 24.0 mg
  λz: 0.0655 ± 0.0606 h⁻¹
  CL renal: 75.2 ± 46.8 mL/min
  Cmax: 5910 ± 2300 ng/mL
  AUC(0-t): 19500 ± 11300 ng·h/mL
  Vd/F: 185 ± 84.1 L
[2]; [6]
  CL/F: 225 ± 142 mL/min
  Fe(0-24): 47.2 ± 13.8 % oral dose
  Ue(0-24): 201 ± 68.1 mg
  λz: 0.0424 ± 0.0249 h⁻¹
  CL renal: 105 ± 62.9 mL/min
  Cmax: 15000 ± 4440 ng/mL
  AUC(0-t): 44900 ± 30800 ng·h/mL
  Vd/F: 311 ± 137 L
[2]; [7]
  CL/F: 206 ± 78.4 mL/min
  Fe(0-24): 39.2 ± 5.86 % oral dose
  Ue(0-24): 402 ± 103 mg
  λz: 0.0421 ± 0.0246 h⁻¹
  CL renal: 83.2 ± 3600 mL/min
  Cmax: 38200 ± 3950 ng/mL
  AUC(0-t): 92300 ± 36600 ng·h/mL
  Vd/F: 339 ± 166 L
[2]; [8]
  λz: 0.0381 ± 0.0091^a hr^−1
  Vd/F: 214 L
[2]; [9]
  CL/F: 172 ± 60.1 mL/min
  Fe(0-24): 43.1 ± 15.8 % oral dose
  Ue(0-24): 641 ± 208 mg
  CL renal: 73.6 ± 37.8 mL/min
  Cmax: 68200 ± 27500 ng/mL
  AUC(0-t): 158000 ± 43500 ng·h/mL
[2]; [10]
  CL/F: 223 ± 23.6 mL/min
  Fe(0-24): 48.4 ± 14.0 % oral dose
  Ue(0-24): 905 ± 247 mg
  λz: 0.0544 ± 0.0071 h⁻¹
  CL renal: 107 ± 26.2 mL/min
  Cmax: 68600 ± 11000 ng/mL
  AUC(0-t): 141000 ± 8070 ng·h/mL
  Vd/F: 249 ± 40.4 L
[2]; after 7 days of daily dosing
  time of maximum plasma concentrations, mean: 1.24 h
[2]; after 7 days of daily dosing, 3-40 mg/kg/day
  time of maximum plasma concentrations, range: 1.0 to 1.49 h
[2]; oral, across 5 cohorts, read-out: mean t1/2, range
  half-life: 12.9 to 21.3 h
[2]; oral, across 5 cohorts, read-out: median values for tmax, range
  Tmax: 1 to 1.49 h
[2]; 3 mg/kg/day, 7 days oral, N = 4, read-out: T1/2 (converted)
  half-life: 16.2 ± 8.32 h
[2]; 3 mg/kg/day, 7 days oral, median, read-out: tmax
  Tmax: 1.31 h
[2]; 8 mg/kg/day, 7 days oral, N = 4, read-out: T1/2 (converted)
  half-life: 20.9 ± 11.3 h
[2]; 8 mg/kg/day, 7 days oral, median, read-out: tmax
  Tmax: 1.18 h
[2]; 16 mg/kg/day, 7 days oral, N = 4, read-out: T1/2 (converted)
  half-life: 21.3 ± 11.8 h
[2]; 16 mg/kg/day, 7 days oral, median, read-out: tmax
  Tmax: 1 h
[2]; 32 mg/kg/day, 7 days oral, N = 2, read-out: T1/2 (converted)
  half-life: 18.7 h
[2]; 32 mg/kg/day, 7 days oral, median, read-out: tmax
  Tmax: 1.49 h
[2]; 40 mg/kg/day, 7 days oral, N = 4, read-out: T1/2 (converted)
  half-life: 12.9 ± 1.68 h
[2]; 40 mg/kg/day, 7 days oral, median, read-out: tmax
  Tmax: 1.26 h
[3]; 14.5 mg/kg
  % with net iron reduction: 29%
  Mean net change in hepatic iron: 3.1 mg/g-dw
[3]; 29 mg/kg
  % with net iron reduction: 44%
  Mean net change in hepatic iron: −0.3 mg/g-dw
[3]; initial dose 14.5 mg/kg/day
  LIC, Week 12: 13.7 (1.74)
  LIC, Week 24: 13.6 (1.94)
  LIC, Week 48: 11.7 (1.46)
[3]; initial dose 29 mg/kg/day
  LIC, Week 12: 13.6 (2.04)
  LIC, Week 24: 12.8 (1.79)
  LIC, Week 48: 11.8 (2.04)
[3]; once daily oral, dose as low as 14.5 mg/kg of body weight
  effect on liver iron concentration in iron overload patients: reduces liver iron concentration
[4]; single oral dose 6, 10, 16, 32 mg/kg
  tolerability: well tolerated
[4]; single oral dose 6-32 mg/kg
  clinical laboratory assessments, vital sign measurements, ECG parameters: no clinically significant changes
  deaths, SAEs, withdrawals due to AEs: no deaths, no serious adverse events (SAEs), and no withdrawals due to AEs
[4]; single subject who received 32 mg/kg, all at site of venipuncture
  TEAEs reported: Three

From patent US8993606B2, “Oral formulations for treating metal overload” (FerroKin BioSciences, Inc., priority 2011, dated 2015)
